{
  "source": "patent US4731241A",
  "about": "“Percutaneous pharmaceuticals preparation for external use” (priority 1983, dated 1988)",
  "key": {"[1]": {"format": "in vivo, male SD-JCL rats", "conditions": "rat", "description": "Five male SD-JCL rats with a mean body weight of 250 g were anesthetized with pentobarbital and the abdominal hairs were clipped with an electric clipper (20 cm^2 5×4 cm). Each of coating samples A though D was then coated on the clipped area. At 1, 2, 4 and 6 hours after application (till 8 hours for evaluation of sustained effect), 0.5 ml of venous blood was collected from the tail vain of each rat and the plasma concentration of molsidomine was determined by the following procedure.\nIn a mixture of 20 mg of lauric acid, which is a percutaneous absorption promotor according to this invention, and 177 mg of propylene glycol was dissolved 3 mg of clonidine to prepare a coating sample. Using this sample, a percutaneous absorption test was conducted in the same manner as Example 1. The plasma concentration of clonidine was determined by the following procedure.\nThe venous blood was centrifuged and the plasma was separated. A 0.2 ml of the plasma was extracted with 1 ml of 0.01 N NaOH and 5 ml of chloroform, and from 4 ml of the chloroform layer, the chloroform was evaporated. The residue was dissolved in 0.2 ml of a mixture of 0.05 M sodium acetate, acetonitrile and tetrahydrofuran (70:30:0.2, v/v), and 50 μl of this solution was subjected to liquid chromatography to determine the clonidine concentration. A column of μ-Bondapak C18 was employed. The evaluation of percutaneous absorption was carried out in the same manner as described in Example 1. […] Similar tests were conducted using oleic acid, lauryl alcohol, oleinamide and laurylamine as well but all of them were ineffective for clonidine as […]."}, "[2]": {"from_the_text": "Then, the present inventors attempted at a systematic classification of compounds which could contribute to the percutaneous absorption of molsidomine and performed a series of experiments."}, "[3]": {"conditions": "cited from earlier work"}},
  "note": "Read-outs that look alike come from different tables or passages of the source.",
  "data": [
    {"smiles": "Clc1cccc(Cl)c1N=C1NCCN1", "note": "[clonidine]", "values": [
      {"measurement": "clonidine detection in the blood", "setting": "[1]; 3 mg clonidine, 20 mg lauric acid, 177 mg propylene glycol, percutaneous", "result": "not detected"}
    ]},
    {"smiles": "OCC(O)CO", "note": "[glycerin]", "values": [
      {"measurement": "promotion of percutaneous absorption of molsidomine", "setting": "[2]; added to molsidomine", "result": "none of them proved meaningfully effective"}
    ]},
    {"smiles": "CCCCCCCCCCCC(=O)O", "note": "[lauric acid]", "values": [
      {"measurement": "effectiveness as percutaneous absorption promoter for clonidine", "setting": "[1]; percutaneous, clonidine", "result": "not effective"}
    ]},
    {"smiles": "CCCCCCCCCCCCO", "note": "[lauryl alcohol]", "values": [
      {"measurement": "effectiveness as percutaneous absorption promoter for clonidine", "setting": "[1]; percutaneous, clonidine", "result": "ineffective"}
    ]},
    {"smiles": "CCCCCCCCCCCCN", "note": "[laurylamine]", "values": [
      {"measurement": "effectiveness as percutaneous absorption promoter for clonidine", "setting": "[1]; percutaneous, clonidine", "result": "ineffective"}
    ]},
    {"smiles": "COC(=O)c1ccccc1O", "note": "[methyl salicylate]", "values": [
      {"measurement": "promotion of percutaneous absorption of molsidomine", "setting": "[2]", "result": "none of them proved meaningfully effective"}
    ]},
    {"smiles": "CCOC(=O)[N-]c1cn(N2CCOCC2)n[o+]1", "note": "[molsidomine, N-ethoxycarbonyl-3-morpholinosydnonimine]", "values": [
      {"measurement": "side effects", "setting": "[3]; background", "result": "few side effects"},
      {"measurement": "vasodilator activity", "setting": "[3]; background", "result": "excellent vasodilator activity"},
      {"measurement": "percutaneous absorption of molsidomine administered alone", "setting": "[3]; percutaneous route, alone", "result": "not well absorbed"}
    ]},
    {"smiles": "CCCCCCCC/C=C\\CCCCCCCC(=O)O", "note": "[oleic acid]", "values": [
      {"measurement": "effectiveness as percutaneous absorption promoter for clonidine", "setting": "[1]; in vivo", "result": "ineffective"}
    ]},
    {"smiles": "CCCCCCCC/C=C\\CCCCCCCC(N)=O", "note": "[oleinamide]", "values": [
      {"measurement": "effectiveness as percutaneous absorption promoter for clonidine", "setting": "[1]; percutaneous, clonidine", "result": "ineffective"}
    ]},
    {"smiles": "CC(O)CO", "note": "(centres unmarked) [propylene glycol]", "values": [
      {"measurement": "promotion of percutaneous absorption of molsidomine", "setting": "[2]; added to molsidomine", "result": "none of them proved meaningfully effective"}
    ]},
    {"smiles": "O=C(O)c1ccccc1O", "note": "[salicylic acid]", "values": [
      {"measurement": "promotion of percutaneous absorption of molsidomine", "setting": "[2]; added to molsidomine", "result": "none of them proved meaningfully effective"}
    ]},
    {"smiles": "OC[C@@H](O)[C@@H](O)[C@H](O)[C@@H](O)CO", "note": "[sorbitol]", "values": [
      {"measurement": "promotion of percutaneous absorption of molsidomine", "setting": "[2]", "result": "none of them proved meaningfully effective"}
    ]}
  ]
}
